Results: the NIST ThermoML archive (doi:10.1021/je060032n)

Experiment: xn = mol fraction of the nth substance listed
Conditions: 101 kPa, Liquid; for viscosity: Capillary tube (Ostwald / Ubbelohde) method

NCCNCCO [N-(2-aminoethyl)ethanolamine] + O
Conditions	mass density [kg/m3]	viscosity [mPa·s]
298.15 K, x1 = 0.05	1015.65	2.45
298.15 K, x1 = 0.07	1022.28	3.87
298.15 K, x1 = 0.0999	1030.85	6.76
298.15 K, x1 = 0.1992	1047.37	30
298.15 K, x1 = 0.3	1050.66	70.9
298.15 K, x1 = 0.3997	1048.18	104
298.15 K, x1 = 0.4991	1044.05	121
298.15 K, x1 = 0.599	1039.62	124
298.15 K, x1 = 0.6991	1035.48	121
298.15 K, x1 = 0.7997	1031.83	116
298.15 K, x1 = 0.9002	1028.28	109
298.15 K, x1 = 1	1025.28	98.6
303.15 K, x1 = 0.05	1013.65	2.16
303.15 K, x1 = 0.07	1020.01	3.24
303.15 K, x1 = 0.0999	1028.24	5.5
303.15 K, x1 = 0.1992	1044.02	22.6
303.15 K, x1 = 0.3	1047.05	50.4
303.15 K, x1 = 0.3997	1044.5	72.8
303.15 K, x1 = 0.4991	1040.33	83.9
303.15 K, x1 = 0.599	1035.89	87
303.15 K, x1 = 0.6991	1031.74	84.8
303.15 K, x1 = 0.7997	1028.11	82.5
303.15 K, x1 = 0.9002	1024.57	78.1
303.15 K, x1 = 1	1021.53	70.5
313.15 K, x1 = 0.05	1009.22	1.63
313.15 K, x1 = 0.07	1015.13	2.29
313.15 K, x1 = 0.0999	1022.7	3.83
313.15 K, x1 = 0.1992	1037.13	13.5
313.15 K, x1 = 0.3	1039.7	27.8
313.15 K, x1 = 0.3997	1037.01	38.9
313.15 K, x1 = 0.4991	1032.79	44.8
313.15 K, x1 = 0.599	1028.36	46.5
313.15 K, x1 = 0.6991	1024.21	45.7
313.15 K, x1 = 0.7997	1020.57	44.8
313.15 K, x1 = 0.9002	1017.06	44.4
313.15 K, x1 = 1	1014.02	39.4
323.15 K, x1 = 0.05	1004.24	1.26
323.15 K, x1 = 0.07	1009.76	1.75
323.15 K, x1 = 0.0999	1016.8	2.8
323.15 K, x1 = 0.1992	1030.03	8.7
323.15 K, x1 = 0.3	1032.15	16.5
323.15 K, x1 = 0.3997	1029.37	22.5
323.15 K, x1 = 0.4991	1025.13	25.6
323.15 K, x1 = 0.599	1020.71	26.7
323.15 K, x1 = 0.6991	1016.59	26.4
323.15 K, x1 = 0.7997	1012.96	26
323.15 K, x1 = 0.9002	1009.48	26
323.15 K, x1 = 1	1006.44	23.4
333.15 K, x1 = 0.05	998.75	1.01
333.15 K, x1 = 0.07	1003.89	1.38
333.15 K, x1 = 0.0999	1010.53	2.05
333.15 K, x1 = 0.1992	1022.69	5.9
333.15 K, x1 = 0.3	1024.44	10.5
333.15 K, x1 = 0.3997	1021.57	13.8
333.15 K, x1 = 0.4991	1017.35	15.8
333.15 K, x1 = 0.599	1012.96	16.5
333.15 K, x1 = 0.6991	1008.88	16.5
333.15 K, x1 = 0.7997	1005.3	16.4
333.15 K, x1 = 0.9002	1001.84	16.5
333.15 K, x1 = 1	998.83	14.8
343.15 K, x1 = 0.05	992.77	0.839
343.15 K, x1 = 0.07	997.34	1.11
343.15 K, x1 = 0.0999	1003.89	1.6
343.15 K, x1 = 0.1992	1015.09	4.2
343.15 K, x1 = 0.3	1016.53	7
343.15 K, x1 = 0.3997	1013.6	9.1
343.15 K, x1 = 0.4991	1009.42	10.3
343.15 K, x1 = 0.599	1005.1	10.8
343.15 K, x1 = 0.6991	1001.06	10.8
343.15 K, x1 = 0.7997	997.54	10.8
343.15 K, x1 = 0.9002	994.11	10.7
343.15 K, x1 = 1	991.15	10.1
